ChEMBL document CHEMBL1201862, “PubChem BioAssay data set” (2004)
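The compound was tested at five concentrations on cells cultured in 96-well plates, with a 48-hour exposure period. GI50 marks 50% less growth.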 Calls of active or inactive are those of the source. No stated cut-off is given here; in the data, active = GI50 up to about 1.1 µM and inactive = higher.

What was measured:
Assay in all cases: NCI anticancer screen, dose series, 48 h
OVCAR-5 = test system: OVCAR-5
MOLT-4 = test system: MOLT-4
NCI-H23 = test system: NCI-H23
T47D = test system: T47D
UO-31 = test system: UO-31
SNB-19 = test system: SNB-19
SF-268 = test system: SF-268
EKVX = test system: EKVX
LOX IMVI = test system: LOX IMVI
HT-29 = test system: HT-29
SK-MEL-28 = test system: SK-MEL-28
HOP-62 = test system: HOP-62
SF-295 = test system: SF-295
SNB-75 = test system: SNB-75
MCF7 = test system: MCF7
SK-MEL-2 = test system: SK-MEL-2
PC-3 = test system: PC-3
HL-60 = test system: HL-60
UACC-257 = test system: UACC-257
NCI-H522 = test system: NCI-H522

SMILES | GI50 (OVCAR-5) | GI50 (MOLT-4) | GI50 (NCI-H23) | GI50 (T47D) | GI50 (UO-31) | GI50 (SNB-19) | GI50 (SF-268) | GI50 (EKVX) | GI50 (LOX IMVI) | GI50 (HT-29) | GI50 (SK-MEL-28) | GI50 (HOP-62) | GI50 (SF-295) | GI50 (SNB-75) | GI50 (MCF7) | GI50 (SK-MEL-2) | GI50 (PC-3) | GI50 (HL-60) | GI50 (UACC-257) | GI50 (NCI-H522)
COc1ccc2nc3c4c(nccc4c2c1)-c1ncccc1C3=O | 0.971 µM (active) | 0.847 µM (active) | 0.0887 µM (active) | 0.703 µM (active) | 0.135 µM (active) | 0.0656 µM (active) | 0.0826 µM (active) | 0.132 µM (active) | 0.00982 µM (active) | 0.499 µM (active) | 0.109 µM (active) | 0.0193 µM (active) | 0.08 µM (active) | 0.0787 µM (active) | 0.021 µM (active) | 0.376 µM (active) | 0.0317 µM (active) | 0.0217 µM (active) | 0.0834 µM (active) | 
N#Cc1c(NCCc2ccc(F)cc2)c2ccccc2n2c1nc1ccccc12 | 41.6 µM (inactive) | > 100 µM (inactive) | 13.1 µM (inactive) | 22.4 µM (inactive) | 13.7 µM (inactive) | 14 µM (inactive) | 7.41 µM (inactive) | 10.2 µM (inactive) | 14.1 µM (inactive) | 14.9 µM (inactive) | 40.6 µM (inactive) | 5.27 µM (inactive) | 10.7 µM (inactive) | 6.32 µM (inactive) | 6.34 µM (inactive) | 36.9 µM (inactive) | 13 µM (inactive) | > 100 µM (inactive) | 40.4 µM (inactive) | 
Cc1ccc(-c2ccc(Nc3c4ccccc4nc4ccccc34)cc2)cn1 | 19.5 µM (inactive) | 1.03 µM (active) | 4.66 µM (inactive) | 2.17 µM (inactive) | 3.13 µM (inactive) | 5.86 µM (inactive) | 8.75 µM (inactive) | 6.64 µM (inactive) | 2.71 µM (inactive) | 2.13 µM (inactive) | 2.51 µM (inactive) | 1.82 µM (inactive) | 2.37 µM (inactive) |  | 2.26 µM (inactive) | 1.87 µM (inactive) | 4.97 µM (inactive) |  | 7.13 µM (inactive) | 2.83 µM (inactive)
c1ccc2c(c1)c1c(n2CCOCCN2CCOCC2)CCCC1 | 25.1 µM (inactive) | 25 µM (inactive) | 32.3 µM (inactive) | 32.2 µM (inactive) | 27.1 µM (inactive) | > 100 µM (inactive) | 20.7 µM (inactive) | 30.9 µM (inactive) | 20.2 µM (inactive) | 15.6 µM (inactive) | 19.5 µM (inactive) | 26.3 µM (inactive) | 23.9 µM (inactive) | 2.36 µM (inactive) | 38.8 µM (inactive) | 24.2 µM (inactive) | 24.7 µM (inactive) | 20 µM (inactive) | 21.1 µM (inactive) | 
O=C(O)c1cccc2c1/C(=N/Nc1ccccc1)CC2 | > 100 µM (inactive) | > 100 µM (inactive) | > 100 µM (inactive) | 9.84 µM (inactive) | > 100 µM (inactive) |  | > 100 µM (inactive) | > 100 µM (inactive) | > 100 µM (inactive) | > 100 µM (inactive) | > 100 µM (inactive) | > 100 µM (inactive) | 17.2 µM (inactive) |  | 45.1 µM (inactive) | 66.8 µM (inactive) | > 100 µM (inactive) |  | 65.9 µM (inactive) | > 100 µM (inactive)
COC1(OC)c2no[n+]([O-])c2CCC1O (stereo unspecified) | > 100 µM (inactive) | > 100 µM (inactive) | > 100 µM (inactive) | > 100 µM (inactive) | > 100 µM (inactive) | > 100 µM (inactive) | > 100 µM (inactive) | > 100 µM (inactive) | > 100 µM (inactive) | > 100 µM (inactive) | > 100 µM (inactive) | > 100 µM (inactive) | > 100 µM (inactive) |  | > 100 µM (inactive) | > 100 µM (inactive) | > 100 µM (inactive) |  | > 100 µM (inactive) | > 100 µM (inactive)
CC1=CC(O)(c2ccccc2)C(N2CCOCC2)N1O (stereo unspecified) | > 100 µM (inactive) | > 100 µM (inactive) | > 100 µM (inactive) | > 100 µM (inactive) | > 100 µM (inactive) | > 100 µM (inactive) | > 100 µM (inactive) | > 100 µM (inactive) | > 100 µM (inactive) | > 100 µM (inactive) | > 100 µM (inactive) | > 100 µM (inactive) | > 100 µM (inactive) |  | > 100 µM (inactive) | 81.1 µM (inactive) | > 100 µM (inactive) |  | > 100 µM (inactive) | > 100 µM (inactive)
CCOc1ccc(NC(=S)N/C=C(/C(C)=O)C(=O)Nc2ccccc2C)cc1 | > 100 µM (inactive) | > 100 µM (inactive) | > 100 µM (inactive) | > 100 µM (inactive) | > 100 µM (inactive) | > 100 µM (inactive) | > 100 µM (inactive) | > 100 µM (inactive) | > 100 µM (inactive) | > 100 µM (inactive) |  | > 100 µM (inactive) | > 100 µM (inactive) |  | > 100 µM (inactive) | > 100 µM (inactive) | > 100 µM (inactive) | > 100 µM (inactive) | > 100 µM (inactive) | > 100 µM (inactive)
COc1cc(OC)c(C2c3cc4c(cc3OC(N3CCCC3)C2C)OCO4)c(OC)c1 (stereo unspecified) | 18.5 µM (inactive) | 10.9 µM (inactive) | 14.8 µM (inactive) | 10.5 µM (inactive) | 7.67 µM (inactive) | 15 µM (inactive) | 8.49 µM (inactive) | 22.3 µM (inactive) | 11.9 µM (inactive) | 10.3 µM (inactive) | 18.4 µM (inactive) | 16.5 µM (inactive) | 8.97 µM (inactive) |  | 14.9 µM (inactive) | 18.7 µM (inactive) | 15.7 µM (inactive) |  | 19.2 µM (inactive) | 15.3 µM (inactive)
CC1=NN(c2cccc(Cl)c2)C2(SCC(=O)N2c2nc3ccccc3s2)C1=CC=Cc1ccccc1 (stereo unspecified) | 51.6 µM (inactive) | 19.1 µM (inactive) | 27 µM (inactive) | 34.4 µM (inactive) | 23.6 µM (inactive) |  | 31.6 µM (inactive) | 54.2 µM (inactive) | 35.3 µM (inactive) | 30.1 µM (inactive) | 34.4 µM (inactive) | 36.1 µM (inactive) | 35.2 µM (inactive) |  | 25.5 µM (inactive) | 21.7 µM (inactive) | 29.7 µM (inactive) | 1.47 µM (inactive) | 36.9 µM (inactive) | 26.7 µM (inactive)
CCOC(=O)c1cc(C2CCN(Cc3ccccc3)C2=O)c(C(=O)C(=[N+]=[N-])C(C)=O)[nH]1 (stereo unspecified) | > 100 µM (inactive) | > 100 µM (inactive) | > 100 µM (inactive) | > 100 µM (inactive) | > 100 µM (inactive) | > 100 µM (inactive) | > 100 µM (inactive) | > 100 µM (inactive) | > 100 µM (inactive) | > 100 µM (inactive) | > 100 µM (inactive) | > 100 µM (inactive) | > 100 µM (inactive) | > 100 µM (inactive) | > 100 µM (inactive) | > 100 µM (inactive) | > 100 µM (inactive) | > 100 µM (inactive) | > 100 µM (inactive) | 
